The nature of data set [1]: Cytotoxicity against CHO cells assessed as reduction in cell viability incubated for 72 hrs by MTT assay. Type of data set: cell-based, Cricetulus griseus. The following applies: chinese hamster.
Data set [2] in a line: Cmax in SPF ICR mouse at 25 mg/kg, po administered as single dose measured for 0.25 to 24 hrs. Type of data set: ADME, organism-based. More on the design: dose 25 mg/kg, route oral. The following applies: in vivo.
Data set [3] is described as follows: AUC (0 to infinity) in SPF ICR mouse at 25 mg/kg, po administered as single dose measured for 0.25 to 24 hrs. Type of data set: ADME, organism-based. Further details: dose 25 mg/kg, time infinity, route oral. Particulars: in vivo.
The nature of data set [4]: Tmax in SPF ICR mouse at 25 mg/kg, po administered as single dose measured for 0.25 to 24 hrs. Type of data set: ADME, organism-based. Particulars: in vivo.
Data set [5] can be described thus: Metabolic stability in SPF ICR mouse liver microsomes assessed as half life […]. Type of data set: ADME, Microsome. For orientation: Microsomes from liver hold many membrane-bound enzymes, among them those of drug oxidation.
Data set [6] can be described thus: Elimination half life in SPF ICR mouse at 25 mg/kg, po administered as single dose measured for 0.25 to 24 hrs. It is filed as ADME, organism-based. The following applies: in vivo, read-out: beta t1/2 (converted).

Where only a bound is given, the exact number is not on record here.

Consider `CCOC(=O)c1c(-c2ccc(F)cc2)oc2ccc(OCCCCCCN3C(=O)C(=O)c4cc(OC)ccc43)cc12`, for which the CC50 (usually the concentration at which the toxic effect on the cells reaches its halfway point) at 72 h in data set [1] worked out at 256 µM. Consider `CCOC(=O)c1c(-c2ccc(OC)cc2)oc2ccc(OCCCCCCN3C(=O)/C(=N/NC(N)=S)c4cc(F)ccc43)cc12`, for which the peak level in data set [2] (Cmax) was 2540 ng/mL. In addition, the CC50 at 72 h in data set [1] amounted to 128 µM. Further, in data set [3], the area under the curve AUC(0-inf) (usually the area under the concentration-time curve extrapolated to infinity) is 3800 ng·h/mL. In addition, in data set [4], the Tmax (usually the time from dosing to the highest level) was 1.81 h. The half-life in data set [5] is 0.29 h; in data set [6], 2.32 h.

With `CCOC(=O)c1c(-c2ccc(F)cc2)oc2ccc(OCCN3C(=O)C(=O)c4cc(OC)ccc43)cc12`, the CC50 at 72 h in data set [1] was 512 µM. For `CCOC(=O)c1c(-c2ccc(F)cc2)oc2ccc(OCCN3C(=O)C(=O)c4ccccc43)cc12`, in data set [1], the CC50 at 72 h is 128 µM. On to `CO[C@H]1/C=C/O[C@@]2(C)Oc3c(C)c(O)c4c(O)c(c(/C=N/N5CCN(C)CC5)c(O)c4c3C2=O)NC(=O)/C(C)=C\C=C\[C@H](C)[C@H](O)[C@@H](C)[C@@H](O)[C@@H](C)[C@H](OC(C)=O)[C@@H]1C` [RIFAMPIN], for which, in data set [1], the half-maximal cytotoxic concentration (CC50) at 72 h turned out to be 512 µM. In the case of `CCOC(=O)c1c(-c2ccccc2)oc2ccc(OCCCN3C(=O)/C(=N/O)c4ccccc43)cc12`, in data set [1], the CC50 at 72 h was 512 µM. With `CCOC(=O)c1c(-c2ccc(F)cc2)oc2ccc(OCCN3C(=O)C(=O)c4cc(F)ccc43)cc12`, the CC50 at 72 h in data set [1] is 64 µM.

With `CCOC(=O)c1c(-c2ccc(F)cc2)oc2ccc(OCCCCCCN3C(=O)/C(=N\O)c4cc(OC)ccc43)cc12`, in data set [1], the CC50 at 72 h was 512 µM. As to `CCOC(=O)c1c(-c2ccccc2)oc2ccc(OCCCN3C(=O)/C(=N/O)c4cc(OC)ccc43)cc12`, in data set [1], the CC50 at 72 h was 512 µM. For `CCOC(=O)c1c(-c2ccc(OC)cc2)oc2ccc(OCCCCCN3C(=O)C(=O)c4ccccc43)cc12`, the CC50 at 72 h in data set [1] worked out at 128 µM.

For `CCOC(=O)c1c(-c2ccccc2)oc2ccc(OCCCCCCN3C(=O)C(=O)c4ccccc43)cc12`, the CC50 at 72 h in data set [1] turned out to be 128 µM.

In the case of `CCOC(=O)c1c(-c2ccccc2)oc2ccc(OCCN3C(=O)C(=O)c4cc(F)ccc43)cc12`, the cytotoxic concentration (CC50) at 72 h in data set [1] was determined as 64 µM. For the compound `NNC(=O)c1ccncc1` [ISONIAZID], the CC50 at 72 h in data set [1] turned out to be 256 µM. Take `CNC(=O)c1c(-c2ccc(O)cc2)oc2ccc(O)c(CN3CCCCC3)c12`: the CC50 at 72 h in data set [1] was over 1020 µM. For the same compound, the half-life in data set [5] is over 1 h. As for `CCO/N=C1\C(=O)N(CCCCCCOc2ccc3oc(-c4ccc(F)cc4)c(C(=O)OCC)c3c2)c2ccc(OC)cc21`, in data set [1], the CC50 at 72 h turned out to be 256 µM. `CCOC(=O)c1c(-c2ccc(OC)cc2)oc2ccc(OCCCN3C(=O)C(=O)c4cc(F)ccc43)cc12`: the CC50 at 72 h in data set [1] is 64 µM. Same read-out and setting: the result for `CCOC(=O)c1c(-c2ccccc2)oc2ccc(OCCCN3C(=O)C(=O)c4ccccc43)cc12` reads 256 µM; that for `CCOC(=O)c1c(-c2ccc(F)cc2)oc2ccc(OCCCN3C(=O)/C(=N/O)c4ccccc43)cc12`, 256 µM; that for `CCOC(=O)c1c(-c2ccc(F)cc2)oc2ccc(OCCCCCCN3C(=O)/C(=N/OC)c4ccccc43)cc12`, 128 µM. Regarding `CCOC(=O)c1c(-c2ccc(OC)cc2)oc2ccc(OCCCCN3C(=O)C(=O)c4ccccc43)cc12`, in data set [1], the CC50 at 72 h amounted to 256 µM.

For `CCOC(=O)c1c(-c2ccccc2)oc2ccc(OCCCN3C(=O)C(=O)c4cc(OC)ccc43)cc12`, the CC50 at 72 h in data set [1] amounted to 512 µM. On to `CCOC(=O)c1c(-c2ccc(F)cc2)oc2ccc(OCCCN3C(=O)C(=O)c4ccccc43)cc12`, for which the CC50 at 72 h in data set [1] worked out at 256 µM.

The values are drawn from ChEMBL document CHEMBL4311962, “Benzofuran-isatin hybrids and their in vitro anti-mycobacterial activities against multi-drug resistant Mycobacterium tuberculosis” (Eur J Med Chem, 2019).
